Experimental data reported in patent US20100249184A1, “INDUCTION AND/OR MAINTENANCE OF TUMOR DORMANCY BY DISRUPTION OF UROKINASE PLASMINOGEN ACTIVATOR RECEPTOR-INTEGRIN INTERACTION” (MOUNT SINAI SCHOOL OF MEDICINE, priority 2007, published 2010).

Tested on: T-HEp3 cells
Assay: P-ERK/ERK Western blotting after peptide treatment
Assay type: cell-based, human
From the text: FIGS. 6A-E show ERK activation and growth in vivo. In FIG. 6A, HEK293 and D-Hep3 cells transfected with uPAR^wt produces stronger activation of ERK than cells transfected with uPAR^S245A or with vector (top and middle panels); HEK293, and D-HEp3 cells, transiently transfected with pcDNA3.1 vector, or with an expression construct for uPAR^wt or uPAR^S245A lysed 48 hrs later and analyzed by Western blotting for phospho-ERK (FIG. 6A, top panels) and ERK 1/2 (FIG. 6A, middle panels) with specific antibodies. The bands were scanned with NIH Image and plotted. The ratio of phospho-ERK to ERK was calculated and expressed as a fraction of the ratio of pcDNA3.1 transfected cells. In FIG. 6A (bottom panels), uPAR^wt and uPAR^S245A expression was determined by Western blotting. […] D-HEp3 cells transfected with vector, or uPAR^wt or uPAR^S245A were detached with EDTA 36 hrs after transfection and 7×10^5 cells in 30 μl PBS were inoculated onto chorioallantoic membranes (“CAMs”) of 10-day old chick embryos. Each sample was inoculated onto 4 CAMs. The CAMs were excised 4 days later and the number of tumor cells was determined as in the Examples. The bars show mean and standard deviation. Paired t-test vector/uPAR^S245A p=0.76, vector/uPAR^wt p=0.0005, uPAR^S245/uPAR^wt p=0.0002. Inset: uPAR expression detected by Western blot with R2 antibody. In FIG. 6C, peptide 240-248, but not peptide 17-24, down regulates P-ERK level. T-HEp3 cells were serum-starved and treated in serum-free medium with 25 μM of peptides 240-248 and 17-24 for 45 min and 3 hrs. The cells were lysed and the lysates were analyzed for P-ERK (FIG. 6C, upper panel) and total ERK (FIG. 6C, lower panel) by Western blotting. FIG. 6D is a graph showing that S245A mutant peptide has no effect on ERK activation. T-HEp3 cells were treated with 5, 20, and 40 μM peptides 240-248 ([…]), 17-24 (▪), and S245A (▾) for 1 hr. The cells were processed as in FIG. 6C, except that the bands were scanned by NIH Image the P-ERK/ERK ratio was calculated. […] Sub-confluent T-ELK:GFP cells grown in 48-well plate and serum-starved overnight were incubated with the uPAR peptides 240-248 at 5 and 25 μM and with 17-24 peptide at 25 μM for 40 hrs at 37° C. in serum-free medium. The cells were detached and analyzed for GFP in FACS Canto using FACSDiva software. The numbers represent GFP-positive cells as percent of total. The dose-response for peptide 240-248 and highest concentration of peptides 17-24 and S245A were repeated two additional times with similar results.
To test the effect of uPAR/integrin inhibiting peptides on ERK activity, T-HEp3 cells transfected with two plasmids that report through GFP level on the state of ERK activation and designated T-ELK (Aguirre-Ghiso et al., Cancer Res. 63:1684-1695 (2003), which is hereby incorporated by reference in its entirety) were plated in 48-well plates, serum-starved overnight, and treated (in duplicates) with 5 and 25 μM of uPAR-derived synthetic peptides (240-248) or 25 μM (17-24) in DMEM for 42 hrs. Untreated cells served as positive control and cells not expressing GFP as negative control. The cells were detached and analyzed for GFP by FACS analysis using FACS Canto (Becton Dickinson, Calif.) and FACSDiva software. Alternatively, T-HEp3 cells, serum-starved overnight were incubated in serum-free medium with 5, 20, and 40 μM of uPAR-derived synthetic peptide 240-248, 17-24, or S245A for 1 hr or with 25 μM peptide 240-248 and 17-24 for 10 min, 45 min, and 3 hrs at 37° C. The cells were lysed in RIPA buffer and processed as described above. Concentration dependence of P-ERK inhibition was analyzed by scanning P-ERK and ERK bands with NIH-Image and expressing their ratios as % of the ratio in untreated control (T-HEp3) cells.

[1] = 25 μM peptide, 45 and 180 min, serum-starved
[2] = 25 μM peptide, 10 min, serum-starved

Row | Substance | P-ERK level [1] | P-ERK level [2] | P-ERK level (5, 20 and 40 μM peptide, 1 hr)
1 | peptide 17-24: synthetic uPAR-derived peptide, domain I amino acid 17-24: CALGQDLC (SEQ ID NO:5); negative control [reference compound] | minimal or no effect | only a minor effect | minor and inconsistent effects
2 | peptide 240-248: synthetic uPAR-derived peptide, domain III residues 240-248: GCATASMCQ (SEQ ID NO:9) | strong reduction in P-ERK level | only a minor effect | reduced P-ERK level in a dose-dependent fashion
